Test [1] concerns the target T1, human mu opioid receptor (hMOR) (Homo sapiens, UniProt P35372).
T1 construct: expressed in transfected cells; host or cells: CHO cells
The experiment in a line: Mu radioligand binding assay ([3H]diprenorphine, CHO cell membranes). As for the experimental part: (§1) Kappa and Mu Radioligand Binding Assay:
Binding assays on membranes from CHO cells expressing human kappa or mu opioid receptors were performed according to standard procedures. Frozen cell paste was homogenized in 50 mM Tris HCl buffer (pH 7.4 @ 4 degrees C.) containing 2.0 mM MgCl2 using a Polytron and spun in a centrifuge at 40,000 g for ten minutes. The final pellet was resuspended in assay buffer (50 mM Tris HCl buffer, pH 7.4, containing 1 mM EDTA, 5 mM MgCl2). Incubations were initiated by the addition of membranes to 96-well plates containing test drugs and [^3H]diprenorphine (0.6 nM final concentration for kappa opioid receptor and 0.5 nM final concentration for mu) in a final volume of 250 μl. Non-specific binding was determined by radioligand binding in the presence of a saturating concentration of naltrexone (10 μM). After a one hour incubation period at room temperature, assay samples were rapidly filtered through PEI coated, GF/B fired Unifilter plates (PerkinElmer) and rinsed with ice-cold 50 mM Tris buffer (pH 7.4). Membrane bound [^3H]diprenorphine levels were determined by liquid scintillation counting of the filterplates in Ecolume scintillation fluid. […] Ki values were calculated according to the Cheng Prusoff equation, Ki=IC50/(1+(L/Kd)), where L is the concentration of the radioligand used in the experiment and the Kd value is the dissociation constant for the radioligand (determined previously by saturation analysis).

Test [2] addresses T2, human kappa opioid receptor (hKOR) (Homo sapiens, UniProt P41145).
T2 construct: expressed in transfected cells; host or cells: CHO cells
The experiment in a line: Kappa radioligand binding assay ([3H]diprenorphine, CHO cell membranes). The conditions noted are these: for Selectivity hMOR/hKOR: selectivity ratio calculated by dividing the hMOR Ki by the hKOR Ki. As to the method: as §1
Binding assays on membranes from CHO cells expressing human kappa or mu opioid receptors were performed according to standard procedures. Frozen cell paste was homogenized in 50 mM Tris HCl buffer (pH 7.4 @ 4 degrees C.) containing 2.0 mM MgCl2 using a Polytron and spun in a centrifuge at 40,000 g for ten minutes. The final pellet was resuspended in assay buffer (50 mM Tris HCl buffer, pH 7.4, containing 1 mM EDTA, 5 mM MgCl2). Incubations were initiated by the addition of membranes to 96-well plates containing test drugs and [^3H]diprenorphine (0.6 nM final concentration for kappa opioid receptor and 0.5 nM final concentration for mu) in a final volume of 250 μl. Non-specific binding was determined by radioligand binding in the presence of a saturating concentration of naltrexone (10 μM). After a one hour incubation period at room temperature, assay samples were rapidly filtered through PEI coated, GF/B fired Unifilter plates (PerkinElmer) and rinsed with ice-cold 50 mM Tris buffer (pH 7.4). Membrane bound [^3H]diprenorphine levels were determined by liquid scintillation counting of the filterplates in Ecolume scintillation fluid. The IC50 value (concentration at which 50% inhibition of specific binding occurs) was calculated using a logistic 4 parameter fit model of the concentration-response data. Ki values were calculated according to the Cheng Prusoff equation, Ki=IC50/(1+(L/Kd)), where L is the concentration of the radioligand used in the experiment and the Kd value is the dissociation constant for the radioligand (determined previously by saturation analysis).

The mark [3] stands for this setting: Table 19, geometric mean of 2-6 determinations unless otherwise indicated (Example 3: >=7), read-out: hMOR binding assay Ki.
Where [4] appears, read: Table 20, radioligand binding, read-out: hMOR binding assay Ki.
The mark [5] stands for this setting: Table 19, geometric mean of 2-6 determinations unless otherwise indicated (Example 3: >=7), read-out: hKOR binding assay Ki.
The mark [6] stands for this setting: Table 20, radioligand binding, read-out: hKOR binding assay Ki.
Where [7] appears, read: radioligand binding, [3H]diprenorphine, read-out: hMOR Ki.
[8] abbreviates: radioligand binding, [3H]diprenorphine, read-out: hKOR Ki.

Structures are written as SMILES. Read-outs that look alike come from different tables or passages of the source.

T2 sequence (P41145 whole entry): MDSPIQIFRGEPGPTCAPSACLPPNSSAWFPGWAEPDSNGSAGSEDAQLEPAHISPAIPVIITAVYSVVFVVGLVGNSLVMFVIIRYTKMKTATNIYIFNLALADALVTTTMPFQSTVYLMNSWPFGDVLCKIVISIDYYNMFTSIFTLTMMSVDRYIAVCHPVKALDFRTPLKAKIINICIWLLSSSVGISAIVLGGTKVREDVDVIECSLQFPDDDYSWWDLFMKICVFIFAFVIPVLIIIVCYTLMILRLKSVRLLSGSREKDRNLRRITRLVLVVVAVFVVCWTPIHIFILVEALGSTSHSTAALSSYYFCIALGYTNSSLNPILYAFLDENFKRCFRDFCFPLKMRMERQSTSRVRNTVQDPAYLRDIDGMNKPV
T1 sequence (P35372 whole entry): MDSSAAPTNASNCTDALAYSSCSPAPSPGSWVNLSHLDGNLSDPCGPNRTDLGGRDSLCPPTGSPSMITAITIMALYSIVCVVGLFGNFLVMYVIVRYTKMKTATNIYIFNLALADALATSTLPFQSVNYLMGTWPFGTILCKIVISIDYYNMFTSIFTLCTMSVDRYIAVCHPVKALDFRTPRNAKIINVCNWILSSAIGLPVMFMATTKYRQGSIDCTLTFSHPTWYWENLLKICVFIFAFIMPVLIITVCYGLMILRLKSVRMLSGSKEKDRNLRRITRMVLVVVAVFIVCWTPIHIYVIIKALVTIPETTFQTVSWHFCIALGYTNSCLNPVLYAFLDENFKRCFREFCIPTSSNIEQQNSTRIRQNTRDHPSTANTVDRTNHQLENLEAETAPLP

In general, Ki refers to a measure of affinity in units of concentration, obtained from inhibition or displacement. As for `Cc1nn(C)c(C)c1C1CCCN1Cc1ccc(Oc2ccc(C(N)=O)cc2F)cc1` (racemic) [Example 37], the Ki in test [1] (setting [3]) was 0.0125 µM; in test [1] (setting [4]) it was 0.0125 µM; in test [2] (setting [5]), 0.0133 µM; in test [2] (setting [6]) it was 0.0133 µM. In test [2], the “selectivity for KOR over MOR (hMOR Ki divided by hKOR Ki)” value worked out at 0.9 fold. Further, the “Selectivity hMOR/hKOR” value in test [2] is reported as 0.9.
`Cc1nn(C)cc1C1CCCN1Cc1ccc(Oc2ccc(C(N)=O)cc2F)cc1` (single isomer, unassigned) [Example 5, 4-(4-{[2-(1,3-Dimethyl-1H-pyrazol-4-yl)pyrrolidin-1-yl]methyl}phenoxy)-3-fluorobenzamide]: the Ki in test [1] (setting [3]) worked out at 0.0736 µM; in test [2] (setting [5]) it was 0.0168 µM.
As to `Cc1cc(C2CCCN2Cc2ccc(Oc3ccc(C(N)=O)cc3F)cc2)nn1C` (stereo not drawn) [Example 44], the inhibitory constant (Ki) was found to be 0.127 µM in test [1] (setting [3]), 0.127 µM in test [1] (setting [4]), 0.0145 µM in test [2] (setting [5]) and 0.0145 µM in test [2] (setting [6]). Moreover, the “selectivity for KOR over MOR, in words” value in test [2] was “unacceptably lower levels of selectivity (MOR/KOR)”. Further, in test [2], the “Selectivity hMOR/hKOR” value is 9.
Consider `COc1nn(C)cc1C1COCCN1Cc1ccc(Oc2ccc(C(N)=O)cc2F)cc1` (single isomer, unassigned) [enantiomer of Example 20, 3-fluoro-4-(4-{[3-(3-methoxy-1-methyl-1H-pyrazol-4-yl)morpholin-4-yl]methyl}phenoxy)benzamide], for which the Ki was greater than 0.564 µM in test [1] (setting [7]) and 0.145 µM in test [2] (setting [8]).
`Cc1nsc(C2CCCN2Cc2ccc(Oc3ccc(C(N)=O)cc3)cc2)n1` (single isomer, unassigned) [enantiomer of Example 41, 4-(4-{[2-(3-methyl-1,2,4-thiadiazol-5-yl)pyrrolidin-1-yl]methyl}phenoxy)benzamide]: the Ki in test [1] (setting [7]) was greater than 0.558 µM; in test [2] (setting [8]), greater than 0.388 µM.
In the case of `Cc1c(C2CCCN2Cc2ccc(Oc3ccc(C(N)=O)cc3)cc2)cnn1C` (racemic) [Example 36], the Ki came out at 0.0209 µM in test [1] (setting [3]) and 0.00853 µM in test [2] (setting [5]).
For `COc1nn(C)cc1C1CC(C)CN1Cc1ccc(Oc2ccc(C(N)=O)cc2F)cc1` (single isomer, unassigned) [Example 28, 3-fluoro-4-(4-{[2-(3-methoxy-1-methyl-1H-pyrazol-4-yl)-4-methylpyrrolidin-1-yl]methyl}phenoxy)benzamide] the same measures were 0.0779 µM and 0.00488 µM.
In the case of `Cc1cc([C@@H]2CCCN2Cc2ccc(Oc3ccc(C(N)=O)c(O)c3)cc2)n(C)n1` [Example 27, 4-(4-{[(2S)-2-(1,3-dimethyl-1H-pyrazol-5-yl)pyrrolidin-1-yl]methyl}phenoxy)-2-hydroxybenzamide], the Ki in test [1] (setting [3]) stood at 0.121 µM; in test [2] (setting [5]), 0.00207 µM.
Turning to `COc1nn(C)cc1C1COCCN1Cc1ccc(Oc2ccc(C(N)=O)cc2F)cc1` (single isomer, unassigned) [Example 20, 3-fluoro-4-(4-{[3-(3-methoxy-1-methyl-1H-pyrazol-4-yl)morpholin-4-yl]methyl}phenoxy)benzamide], the figures for the Ki in test [1] (setting [3]) and in test [2] (setting [5]) were 0.165 µM and 0.00586 µM, respectively.
With `Cc1nn(C)cc1C1CCCN1Cc1ccc(Oc2ccc(C(N)=O)cc2)c(F)c1` (racemic) [Example 1, (+/−)-4-(4-{[2-(1,3-Dimethyl-1H-pyrazol-4-yl)pyrrolidin-1-yl]methyl}-2-fluorophenoxy) benzamide], the inhibition constant (Ki) turned out to be 0.0202 µM in test [1] (setting [3]) and 0.000871 µM in test [2] (setting [5]).
For `Cn1ccc([C@@H]2CCCN2Cc2ccc(Oc3ccc(C(N)=O)c(O)c3)cc2)n1` [Example 34, 2-hydroxy-4-(4-{[(2S)-2-(1-methyl-1H-pyrazol-3-yl)pyrrolidin-1-yl]methyl}phenoxy) benzamide] the same measures were 0.00398 µM and 0.000508 µM.
On to `Cc1nn(C)nc1C1CCCN1Cc1ccc(Oc2ccc(C(N)=O)cc2)cc1` (single isomer, unassigned) [Example 38, 4-(4-{[2-(2,5-dimethyl-2H-1,2,3-triazol-4-yl)pyrrolidin-1-yl]methyl}phenoxy)benzamide], for which the Ki was 0.116 µM in test [1] (setting [3]), 0.116 µM in test [1] (setting [4]), 0.000688 µM in test [2] (setting [5]) and 0.0007 µM in test [2] (setting [6]). Moreover, the “selectivity for KOR over MOR, in words” value in test [2] is “more selective than the phenyl examples, Comparators A and B”. The “Selectivity hMOR/hKOR” value in test [2] is 168.
On to `Cc1nn(C)cc1C1CCCN1Cc1ccc(Oc2ccc(C(N)=O)c(O)c2)cc1` (single isomer, unassigned; (-)) [Example 18, (−)-4-(4-{[2-(1,3-Dimethyl-1H-pyrazol-4-yl)pyrrolidin-1-yl]methyl}phenoxy)-2-hydroxybenzamide], for which the results for the inhibition constant Ki in test [1] (setting [3]) and in test [2] (setting [5]) were 0.0636 µM and 0.00176 µM, respectively.
On to `Cc1cnn(C)c1C1CCCN1Cc1ccc(Oc2ccc(C(N)=O)cc2F)cc1` (stereo not drawn) [Example 43], for which the Ki in test [1] (setting [3]) was determined as 0.0562 µM; in test [1] (setting [4]), 0.0562 µM; in test [2] (setting [5]) it was 0.0168 µM; in test [2] (setting [6]) it was 0.0168 µM. In test [2], the “selectivity for KOR over MOR, in words” value is “unacceptably lower levels of selectivity (MOR/KOR)”. Moreover, the “Selectivity hMOR/hKOR” value in test [2] was 3.
In the case of `COc1nn(C)cc1C1CCCN1Cc1ccc(Oc2ccc(C(N)=O)cc2F)cc1` (single isomer, unassigned; (+)) [Example 9, (+)-3-Fluoro-4-(4-{[2-(3-methoxy-1-methyl-1H-pyrazol-4-yl)pyrrolidin-1-yl]methyl}phenoxy)benzamide], the Ki is greater than 0.352 µM in test [1] (setting [3]) and 0.0225 µM in test [2] (setting [5]).
For `COc1nn(C)cc1C1CCCCN1Cc1ccc(Oc2ccc(C(N)=O)cc2)cc1` (single isomer, unassigned) [Example 21, 4-(4-{[2-(3-methoxy-1-methyl-1H-pyrazol-4-yl)piperidin-1-yl]methyl}phenoxy)benzamide] the same measures were 0.0146 µM and 0.000567 µM.
With `Cc1nn(C)nc1C1CCCN1Cc1ccc(Oc2ccc(C(N)=O)cc2)c(F)c1` (single isomer, unassigned) [enantiomer of Example 39, 4-(4-{[2-(2,5-dimethyl-2H-1,2,3-triazol-4-yl)pyrrolidin-1-yl]methyl}-2-fluorophenoxy)benzamide], the inhibitory constant (Ki) in test [1] (setting [7]) was determined as 0.132 µM; in test [2] (setting [8]) it was 0.0745 µM.
Take `Cc1nn(C)nc1C1CCCN1Cc1ccc(Oc2ccc(C(N)=O)cc2)cc1` (single isomer, unassigned) [enantiomer of Example 38, 4-(4-{[2-(2,5-dimethyl-2H-1,2,3-triazol-4-yl)pyrrolidin-1-yl]methyl}phenoxy)benzamide]: the Ki in test [1] (setting [7]) is 0.252 µM; in test [2] (setting [8]), greater than 0.119 µM.
For the compound `COc1nn(C)cc1C1COCCN1Cc1ccc(Oc2ccc(C(N)=O)cc2)cc1` (single isomer, unassigned) [Example 23, 4-(4-{[3-(3-methoxy-1-methyl-1H-pyrazol-4-yl)morpholin-4-yl]methyl}phenoxy)benzamide], the Ki in test [1] (setting [3]) came out at 0.0733 µM; in test [2] (setting [5]), 0.00322 µM.
The matching figures for `COc1nn(C)cc1C1CC(C)CN1Cc1ccc(Oc2ccc(C(N)=O)cc2F)cc1` (single isomer, unassigned) [Example 31, 3-fluoro-4-(4-{[2-(3-methoxy-1-methyl-1H-pyrazol-4-yl)-4-methylpyrrolidin-1-yl]methyl}phenoxy)benzamide]: 0.0517 µM and 0.00499 µM.
As to `COc1nn(C)cc1C1CC(C)CN1Cc1ccc(Oc2ccc(C(N)=O)cc2F)cc1` (single isomer, unassigned) [Example 29, 3-fluoro-4-(4-{[2-(3-methoxy-1-methyl-1H-pyrazol-4-yl)-4-methylpyrrolidin-1-yl]methyl}phenoxy)benzamide], the results for the Ki in test [1] (setting [3]) and in test [2] (setting [5]) were 0.0106 µM and 0.000498 µM, respectively.
On to `COc1n[nH]cc1C1CCCN1Cc1ccc(Oc2ccc(C(N)=O)cc2)cc1` (single isomer, unassigned; (+)) [Example 15, (+)-4-(4-{[2-(3-Methoxy-1H-pyrazol-4-yl)pyrrolidin-1-yl]methyl}phenoxy)benzamide], for which the Ki in test [1] (setting [3]) is 0.15 µM; in test [2] (setting [5]), 0.0232 µM.

Values taken from US10316021B2, “Heteroarylphenoxy benzamide kappa opioid ligands” (Pfizer Inc., priority 2016, dated 2019).
